Like-named read-outs stand apart in the source and are kept apart here.
Target: interaction between HDM2 and p53 (GST-hMDM2 (1-188) / biotinylated-p53 (1-83)) (Homo sapiens (Human), UniProt Q00987)
Assay: HTRF2 Assay (improved HTRF assay)
Assay type: binding
Settings: read-out: HTRF2 IC50
[1] = 0.2 nM GST-hMDM2 (1-188), 0.5 nM biotinylated-p53 (1-83), 100 mM KF

interaction between HDM2 and p53 (GST-hMDM2 (1-188) / biotinylated-p53 (1-83)), sequence (Q00987 1-188): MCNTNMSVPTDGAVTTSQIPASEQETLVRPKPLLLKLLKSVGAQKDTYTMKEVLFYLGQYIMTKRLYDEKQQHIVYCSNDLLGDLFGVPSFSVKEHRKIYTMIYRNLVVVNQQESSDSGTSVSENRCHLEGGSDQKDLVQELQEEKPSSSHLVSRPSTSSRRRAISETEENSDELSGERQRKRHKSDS

Compound | IC50 | IC50 [1]
CCC[C@H](CCC(=O)O)N1C(=O)[C@H](Cc2ccc(F)cc2)O[C@@H](c2ccc(Cl)cc2)[C@H]1c1ccc(Cl)cc1 (mixture of isomers) [Example 31, (R)-4-((2S,3R,6S)-2,3-Bis(4-chlorophenyl)-6-(4-fluorobenzyl)-5-oxomorpholino)heptanoic acid and (S)-4-((2R,3S,6R)-2,3-bis(4-chlorophenyl)-6-(4-fluorobenzyl)-5-oxomorpholino)heptanoic acid] | 1330 nM | –
CS(=O)(=O)c1ccc(C[C@@H]2O[C@@H](c3ccc(Cl)cc3)[C@@H](c3ccc(Cl)cc3)N(c3cccnc3)C2=O)c(F)c1 (mixture of isomers) [Example 63, (2S,5R,6S)-5,6-Bis(4-chlorophenyl)-2-(2-fluoro-4-(methylsulfonyl)benzyl)-4-(pyridin-3-yl)morpholin-3-one and (2R,5S,6R)-5,6-bis(4-chlorophenyl)-2-(2-fluoro-4-(methylsulfonyl)benzyl)-4-(pyridin-3-yl)morpholin-3-one] | 20000 nM | –
O=C1[C@H](Cc2ccc(F)cc2)O[C@@H](c2ccc(Cl)cc2)[C@@H](c2ccc(Cl)cc2)N1c1ccnc(Cl)c1 (racemic) [Example 58, (2S,5R,6S)-5,6-Bis(4-chlorophenyl)-4-(2-chloropyridin-4-yl)-2-(4-fluorobenzyl)morpholin-3-one and (2R,5S,6R)-5,6-bis(4-chlorophenyl)-4-(2-chloropyridin-4-yl)-2-(4-fluorobenzyl)morpholin-3-one] | 5000 nM | –
CS(=O)(=O)c1ccc(C[C@@H]2O[C@@H](c3ccc(Cl)cc3)[C@@H](c3ccc(Cl)cc3)N(c3cccnc3)C2=O)cc1 (racemic) [Example 62, (2S,5R,6S)-5,6-Bis(4-chlorophenyl)-2-(4-(methylsulfonyl)benzyl)-4-(pyridin-3-yl)morpholin-3-one and (2R,5S,6R)-5,6-bis(4-chlorophenyl)-2-(4-(methylsulfonyl)benzyl)-4-(pyridin-3-yl)morpholin-3-one] | 15800 nM | –
CCC[C@H](C(=O)NCCCC(=O)O)N1C(=O)[C@H](Cc2ccc(S(C)(=O)=O)cc2)O[C@@H](c2ccc(Cl)cc2)[C@H]1c1ccc(Cl)cc1 [4-(((2R)-2-((2S,3R,6S)-2,3-bis(4-chlorophenyl)-6-(4-(methylsulfonyl)benzyl)-5-oxo-4-morpholinyl)pentanoyl)amino)butanoic acid] | – | 2440 nM
CCC[C@H](C(=O)O)N1C(=O)[C@H](CCN2CCCCC2)O[C@@H](c2ccc(Cl)cc2)[C@H]1c1ccc(Cl)cc1 [(2R)-2-((2S,3R,6S)-2,3-bis(4-chlorophenyl)-5-oxo-6-(2-(1-piperidinyl)ethyl)-4-morpholinyl)pentanoic acid] | – | 1730 nM
CCC[C@H](C(=O)O)N1C(=O)[C@H](CCN2CCN(C)CC2)O[C@@H](c2ccc(Cl)cc2)[C@H]1c1ccc(Cl)cc1 [(2R)-2-((2S,3R,6S)-2,3-bis(4-chlorophenyl)-6-(2-(4-methyl-1-piperazinyl)ethyl)-5-oxo-4-morpholinyl)pentanoic acid] | – | 790 nM
CCC[C@H](C(=O)O)N1C(=O)[C@H](CCN2CCOCC2)O[C@@H](c2ccc(Cl)cc2)[C@H]1c1ccc(Cl)cc1 [(2R)-2-((2S,3R,6S)-2,3-bis(4-chlorophenyl)-6-(2-(4-morpholinyl)ethyl)-5-oxo-4-morpholinyl)pentanoic acid] | – | 1490 nM
CCC[C@H](C(=O)O)N1C(=O)[C@H](Cc2ccccc2OC)O[C@@H](c2ccc(Cl)cc2)[C@H]1c1ccc(Cl)cc1 [(2R)-2-((2S,3R,6S)-2,3-bis(4-chlorophenyl)-6-(2-methoxybenzyl)-5-oxo-4-morpholinyl)pentanoic acid] | – | 496 nM
CCC[C@H](C(=O)O)N1C(=O)[C@H](CCCn2ccnc2)O[C@@H](c2ccc(Cl)cc2)[C@H]1c1ccc(Cl)cc1 [(2R)-2-((2S,3R,6S)-2,3-bis(4-chlorophenyl)-6-(3-(1H-imidazol-1-yl)propyl)-5-oxo-4-morpholinyl)pentanoic acid] | – | 973 nM
CCC[C@H](C(=O)O)N1C(=O)[C@H](CCCO)O[C@@H](c2ccc(Cl)cc2)[C@H]1c1ccc(Cl)cc1 [(2R)-2-((2S,3R,6S)-2,3-bis(4-chlorophenyl)-6-(3-hydroxypropyl)-5-oxo-4-morpholinyl)pentanoic acid] | – | 3010 nM
CCC[C@H](C(=O)O)N1C(=O)[C@H](Cc2cccc(OC)c2)O[C@@H](c2ccc(Cl)cc2)[C@H]1c1ccc(Cl)cc1 [(2R)-2-((2S,3R,6S)-2,3-bis(4-chlorophenyl)-6-(3-methoxybenzyl)-5-oxo-4-morpholinyl)pentanoic acid] | – | 1110 nM
CCC[C@H](CC(=O)O)N1C(=O)[C@@H](Cc2ccc(F)cc2)O[C@H](c2cccc(Cl)c2)[C@@H]1c1ccc(Cl)cc1 [(3R)-3-((2R,3S,6R)-2-(3-chlorophenyl)-3-(4-chlorophenyl)-6-(4-fluorobenzyl)-5-oxo-4-morpholinyl)hexanoic acid] | – | 1150 nM
CCC[C@H](CC(=O)O)N1C(=O)[C@H](Cc2ccc(F)cc2)O[C@@H](c2cccc(Cl)c2)[C@H]1c1ccc(Cl)cc1 [(3R)-3-((2S,3R,6S)-2-(3-chlorophenyl)-3-(4-chlorophenyl)-6-(4-fluorobenzyl)-5-oxo-4-morpholinyl)hexanoic acid] | – | 3660 nM
CCC[C@H](CCC(=O)O)N1C(=O)CO[C@H](c2ccc(Cl)cc2)[C@@H]1c1ccc(Cl)cc1 [(4R)-4-((2R,3S)-2,3-bis(4-chlorophenyl)-5-oxo-4-morpholinyl)heptanoic acid] | – | 4140 nM
CCC[C@H](CCC(=O)O)N1C(=O)CO[C@@H](c2ccc(Cl)cc2)[C@H]1c1ccc(Cl)cc1 [(4R)-4-((2S,3R)-2,3-bis(4-chlorophenyl)-5-oxo-4-morpholinyl)heptanoic acid] | – | 24700 nM

Compound | IC50 | IC50 [1]
O=C1CO[C@@H](c2ccc(Cl)cc2)[C@@H](c2ccc(Cl)cc2)N1c1cc(Cl)nc(Cl)c1 [(5R,6S)-5,6-bis(4-chlorophenyl)-4-(2,6-dichloro-4-pyridinyl)-3-morpholinone] | – | 63000 nM
O=C1CO[C@@H](c2ccc(Cl)cc2)[C@@H](c2ccc(Cl)cc2)N1c1ccnc(Cl)c1 [(5R,6S)-5,6-bis(4-chlorophenyl)-4-(2-chloro-4-pyridinyl)-3-morpholinone] | – | 7180 nM
O=C1CO[C@@H](c2ccc(Cl)cc2)[C@@H](c2ccc(Cl)cc2)N1c1cnccn1 [(5R,6S)-5,6-bis(4-chlorophenyl)-4-(2-pyrazinyl)-3-morpholinone] | – | 9300 nM
CCC[C@H](C(=O)O)N1C(=O)[C@H](Cc2ccccc2)O[C@@H](c2ccc(Cl)cc2)[C@H]1c1ccc(Cl)cc1 [Example 44, (R)-2-((2S,5R,6S)-2-Benzyl-5,6-bis(4-chlorophenyl)-3-oxomorpholino)pentanoic acid] | – | 757 nM
CCC[C@H](C(=O)O)N1C(=O)[C@H](Cc2ccc(F)cc2C#N)O[C@@H](c2ccc(Cl)cc2)[C@H]1c1ccc(Cl)cc1 [Example 45, (R)-2-((2S,3R,6S)-2,3-Bis(4-chlorophenyl)-6-(2-cyano-4-fluorobenzyl)-5-oxomorpholino)pentanoic acid] | – | 466 nM
CCC[C@H](C(=O)O)N1C(=O)[C@H](Cc2ccccc2C#N)O[C@@H](c2ccc(Cl)cc2)[C@H]1c1ccc(Cl)cc1 [Example 46, (R)-2-((2S,3R,6S)-2,3-Bis(4-chlorophenyl)-6-(2-cyanobenzyl)-5-oxomorpholino)pentanoic acid] | – | 259 nM
CCC[C@H](C(=O)O)N1C(=O)[C@H](Cc2ccccc2F)O[C@@H](c2ccc(Cl)cc2)[C@H]1c1ccc(Cl)cc1 [Example 47, (R)-2-((2S,3R,6S)-2,3-Bis(4-chlorophenyl)-6-(2-fluorobenzyl)-5-oxomorpholino)pentanoic acid] | – | 400 nM
CCC[C@H](C(=O)O)N1C(=O)[C@H](Cc2cccc(F)c2)O[C@@H](c2ccc(Cl)cc2)[C@H]1c1ccc(Cl)cc1 [Example 48, (R)-2-((2S,3R,6S)-2,3-Bis(4-chlorophenyl)-6-(3-fluorobenzyl)-5-oxomorpholino)pentanoic acid] | – | 420 nM
CCC[C@H](C(=O)O)N1C(=O)[C@H](Cc2cccc(C#N)c2)O[C@@H](c2ccc(Cl)cc2)[C@H]1c1ccc(Cl)cc1 [Example 49, (R)-2-((2S,3R,6S)-2,3-Bis(4-chlorophenyl)-6-(3-cyanobenzyl)-5-oxomorpholino)pentanoic acid] | – | 561 nM
CCC[C@H](C(=O)O)N1C(=O)[C@H](Cc2cccc(S(C)(=O)=O)c2)O[C@@H](c2ccc(Cl)cc2)[C@H]1c1ccc(Cl)cc1 [Example 50, (R)-2-((2S,3R,6S)-2,3-Bis(4-chlorophenyl)-6-(3-(methylsulfonyl)benzyl)-5-oxomorpholino)pentanoic acid] | – | 568 nM
CCC[C@H](C(=O)O)N1C(=O)[C@H](Cc2ccccc2S(C)(=O)=O)O[C@@H](c2ccc(Cl)cc2)[C@H]1c1ccc(Cl)cc1 [Example 51, (R)-2-((2S,3R,6S)-2,3-Bis(4-chlorophenyl)-6-(2-(methylsulfonyl)benzyl)-5-oxomorpholino)pentanoic acid] | – | 676 nM
CCC[C@H](C(=O)O)N1C(=O)[C@H](Cc2ccc(F)cc2S(C)(=O)=O)O[C@@H](c2ccc(Cl)cc2)[C@H]1c1ccc(Cl)cc1 [Example 52, (R)-2-((2S,3R,6S)-2,3-Bis(4-chlorophenyl)-6-(4-fluoro-2-(methylsulfonyl)benzyl)-5-oxomorpholino)pentanoic acid] | – | 279 nM
CCC[C@H](C(=O)O)N1C(=O)[C@H](Cc2ccc(S(C)(=O)=O)c(F)c2)O[C@@H](c2ccc(Cl)cc2)[C@H]1c1ccc(Cl)cc1 [Example 53, (R)-2-((2S,3R,6S)-2,3-Bis(4-chlorophenyl)-6-(3-fluoro-4-(methylsulfonyl)benzyl)-5-oxomorpholino)pentanoic acid] | – | 276 nM
CCC[C@H](C(=O)O)N1C(=O)[C@H](Cc2ccc(S(C)(=O)=O)cc2)O[C@@H](c2ccc(Cl)cc2)[C@H]1c1ccc(Cl)cc1 [Example 54, (R)-2-((2S,3R,6S)-2,3-Bis(4-chlorophenyl)-6-(4-(methylsulfonyl)benzyl)-5-oxomorpholino)pentanoic acid] | – | 196 nM
CCC[C@H](C(=O)O)N1C(=O)[C@H](Cc2ccc(S(C)(=O)=O)cc2C#N)O[C@@H](c2ccc(Cl)cc2)[C@H]1c1ccc(Cl)cc1 [Example 55, (R)-2-((2S,3R,6S)-2,3-Bis(4-chlorophenyl)-6-(2-cyano-4-(methylsulfonyl)benzyl)-5-oxomorpholino)pentanoic acid] | – | 179 nM

Source: US11407721B2, “CIS-morpholinone and other compounds as MDM2 inhibitors for the treatment of cancer” (AMGEN INC., priority 2013, dated 2022)
